Test results as given in patent US20260078120A1, “SUBSTITUTED PYRIDOPYRIMIDINONES” (MIRATI THERAPEUTICS, INC., priority 2022, published 2026).
Where two headings read alike, the source gives them in different places.

Key:
[1] = tested on: T47D (PI3Kα H1047R mutant) cells; test: CellTiter-Glo 2.0 luminescent cell viability assay, 72 hours, T47D cells; type: cell-based; conditions: T47D (PI3Kα H1047R mutant) cells, CellTiter-Glo, approximately 72 hours, read-out: T47D (H1047R mutant) Viability IC50
Outline: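 Viability was measured by CellTiter-Glo 2.0 luminescence after approximately 72 h of compound exposure at 37° C. Plating was 1000 cells per well the day before dosing, with ten 1:4 dilutions from a 10 µM top concentration. Values as percent of vehicle were fitted by variable-slope log(inhibitor) regression to give IC50.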

[2] = tested on: SKBR3 (PI3Kα wild type) cells; test: CellTiter-Glo 2.0 luminescent cell viability assay, 72 hours, SKBR3 cells; type: cell-based; conditions: Homo sapiens, SK-BR-3, 72 h, SKBR3 (PI3Kα wild type) cells, CellTiter-Glo, approximately 72 hours; read-out: SKBR3 (WT) Viability IC50
Outline: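 Viability measured via CTG luminescence following roughly 72 hours of compound exposure at 37° C. Dosing used a 10 um starting concentration diluted 1:4 over 10 points; percent-of-vehicle data fitted with a variable-slope four-parameter model for IC50.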

| SMILES | IC50 ([1]; Homo sapiens, T47D, 72 h) [µM] | IC50 [2] [µM] | IC50 [1] [µM] |
| --- | --- | --- | --- |
| CCc1cc([C@@H](C)Nc2ccccc2C(=O)O)c2nc(N3Cc4ccccc4C3)c(C#N)c(=O)n2c1 [Example 11-328, (R)-2-((1-(3-cyano-7-ethyl-2-(isoindolin-2-yl)-4-oxo-4H-pyrido[1,2-a]pyrimidin-9-yl)ethyl)amino)benzoic acid] | – | 6.82 | 1.91 |
| Cc1cc([C@@H](C)Nc2ccccc2C(=O)O)c2nc(N3C4CNCC3C4)c(C)c(=O)n2c1 [Example 11-180, 2-(((1R)-1-(2-(3,6-diazabicyclo[3.1.1]heptan-6-yl)-3,7-dimethyl-4-oxo-4H-pyrido[1,2-a]pyrimidin-9-yl)ethyl)amino)benzoic acid] | > 10 | > 10 | – |
| Cc1cc([C@@H](C)Nc2scnc2C(=O)O)c2nc(N3CCC(F)(F)CC3)c(C#N)c(=O)n2c1 [Example 11-292, (R)-5-((1-(3-cyano-2-(4,4-difluoropiperidin-1-yl)-7-methyl-4-oxo-4H-pyrido[1,2-a]pyrimidin-9-yl)ethyl)amino)thiazole-4-carboxylic acid] | 3.95 | > 10 | – |
| Cc1cc(C(C)Nc2ccccc2C(=O)O)c2nc(N3CCc4cnn(C)c4C3)cc(=O)n2c1 (stereo not drawn) [Example 11-382, 2-((1-(7-methyl-2-(1-methyl-1,4,5,7-tetrahydro-6H-pyrazolo[3,4-c]pyridin-6-yl)-4-oxo-4H-pyrido[1,2-a]pyrimidin-9-yl)ethyl)amino)benzoic acid] | 4.32 | > 10 | – |
| Cc1cc([C@@H](C)Nc2ccccc2C(=O)O)c2nc(N3CC4CC(C4)C3)c(C#N)c(=O)n2c1 [Example 11-227, (R)-2-((1-(2-(3-azabicyclo[3.1.1]heptan-3-yl)-3-cyano-7-methyl-4-oxo-4H-pyrido[1,2-a]pyrimidin-9-yl)ethyl)amino)benzoic acid] | 0.123 | > 10 | – |
| Cc1cc([C@@H](C)OC(=O)c2nc(Cl)ccc2N)c2nc(N3CCCCC3)c(C#N)c(=O)n2c1 [Example 11-330, (R)-1-(3-cyano-7-methyl-4-oxo-2-(piperidin-1-yl)-4H-pyrido[1,2-a]pyrimidin-9-yl)ethyl 3-amino-6-chloropicolinate] | > 10 | > 10 | – |
| Cc1cc(C(=O)N2CCCCC2C(=O)O)c2nc(N3CCCCC3)cc(=O)n2c1 (stereo not drawn) [Example 11-346, 1-(7-methyl-4-oxo-2-(piperidin-1-yl)-4H-pyrido[1,2-a]pyrimidine-9-carbonyl)piperidine-2-carboxylic acid] | > 10 | > 10 | – |
| Cc1cc(C(C)Nc2ccccc2C(=O)O)c2nc(-c3ccccc3C#N)cc(=O)n2c1 (stereo not drawn) [Example 11-399, 2-((1-(2-(2-cyanophenyl)-7-methyl-4-oxo-4H-pyrido[1,2-a]pyrimidin-9-yl)ethyl)amino)benzoic acid] | > 10 | > 10 | – |
| Cc1cc(C(C)NCCC(=O)O)c2nc(N3CCCCC3)cc(=O)n2c1 (stereo not drawn) [Example 11-386] | > 10 | > 10 | – |
| Cc1cc([C@@H](C)Nc2ccccc2C(=O)O)c2nc(N3CCN(c4ccc(C#N)c5cc(O)ccc45)CC3)c(C)c(=O)n2c1 [Example 11-254, (R)-2-((1-(2-(4-(4-cyano-6-hydroxynaphthalen-1-yl)piperazin-1-yl)-3,7-dimethyl-4-oxo-4H-pyrido[1,2-a]pyrimidin-9-yl)ethyl)amino)benzoic acid] | 0.124 | > 10 | – |
| Cc1cc([C@@H](C)Nc2ccc(Cl)c(F)c2C(=O)O)c2nc(N3CCC(F)(F)CC3)c(C#N)c(=O)n2c1 [Example 11-89, (R)-3-chloro-6-((1-(3-cyano-2-(4,4-difluoropiperidin-1-yl)-7-methyl-4-oxo-4H-pyrido[1,2-a]pyrimidin-9-yl)ethyl)amino)-2-fluorobenzoic acid] | 3.15 | > 10 | – |

Continued, values first:

| IC50 ([1]; Homo sapiens, T47D, 72 h) [µM] | IC50 [2] [µM] | IC50 [1] [µM] | SMILES |
| --- | --- | --- | --- |
| 0.0123 | > 10 | – | CCOCC1CCN(c2nc3c([C@@H](C)Nc4ccccc4C(=O)O)cc(C)cn3c(=O)c2C)CC1 [Example 10-4, (R)-2-((1-(2-(4-(ethoxymethyl)piperidin-1-yl)-3,7-dimethyl-4-oxo-4H-pyrido[1,2-a]pyrimidin-9-yl)ethyl)amino)benzoic acid] |
| 0.138 | > 10 | – | Cc1cc([C@@H](C)Nc2ccccc2C(=O)O)c2nc(N3CCN(CC(F)(F)F)CC3)c(C#N)c(=O)n2c1 [Example 11-154, (R)-2-((1-(3-cyano-7-methyl-4-oxo-2-(4-(2,2,2-trifluoroethyl)piperazin-1-yl)-4H-pyrido[1,2-a]pyrimidin-9-yl)ethyl)amino)benzoic acid] |
| 0.13 | > 10 | – | Cc1cc([C@@H](C)Nc2ccccc2C(=O)O)c2nc(N3C[C@H]4C[C@@H]3CN4CC(F)F)c(C)c(=O)n2c1 [Example 11-443, 2-(((R)-1-(2-((1R,4R)-5-(2,2-difluoroethyl)-2,5-diazabicyclo[2.2.1]heptan-2-yl)-3,7-dimethyl-4-oxo-4H-pyrido[1,2-a]pyrimidin-9-yl)ethyl)amino)benzoic acid] |
| 3.27 | > 10 | – | Cc1cc([C@H](C)Nc2ccc(F)cc2C(=O)O)c2nc(N3Cc4ccccc4C3)c(C)c(=O)n2c1 [Example 11-365, (S)-5-fluoro-2-((1-(2-(isoindolin-2-yl)-3,7-dimethyl-4-oxo-4H-pyrido[1,2-a]pyrimidin-9-yl)ethyl)amino)benzoic acid] |
| 0.498 | > 10 | – | Cc1cc([C@@H](C)Nc2ccccc2C(=O)O)c2nc(NCC3CC(F)(F)C3)c(C)c(=O)n2c1 [Example 11-199, (R)-2-((1-(2-(((3,3-difluorocyclobutyl)methyl)amino)-3,7-dimethyl-4-oxo-4H-pyrido[1,2-a]pyrimidin-9-yl)ethyl)amino)benzoic acid] |
| 0.383 | > 10 | – | Cc1cc([C@@H](C)Nc2ccc(Cl)cc2C(=O)O)c2nc(N3Cc4ccccc4C3)c(C)c(=O)n2c1 [Example 11-280, (R)-5-chloro-2-((1-(2-(isoindolin-2-yl)-3,7-dimethyl-4-oxo-4H-pyrido[1,2-a]pyrimidin-9-yl)ethyl)amino)benzoic acid] |
| 0.31 | > 10 | – | Cc1cc([C@@H](C)Nc2ccccc2C(=O)O)c2nc(-c3cccc(C(C)(C)C#N)c3)c(C)c(=O)n2c1 [Example 11-238, (R)-2-((1-(2-(3-(2-cyanopropan-2-yl)phenyl)-3,7-dimethyl-4-oxo-4H-pyrido[1,2-a]pyrimidin-9-yl)ethyl)amino)benzoic acid] |
| > 10 | > 10 | – | Cc1cc([C@H](C)Nc2ccccc2C(=O)O)c2nc([C@@H]3CCN(C)C(=O)C3)cc(=O)n2c1 [Example 11-375, 2-(((S)-1-(7-methyl-2-((R)-1-methyl-2-oxopiperidin-4-yl)-4-oxo-4H-pyrido[1,2-a]pyrimidin-9-yl)ethyl)amino)benzoic acid] |
| – | 8.26 | 1.09 | Cc1cc([C@@H](C)Nc2ccc(Cl)nc2C(=O)O)c2nc(N3Cc4ccccc4C3)c(C)c(=O)n2c1 [Example 11-360, (R)-6-chloro-3-((1-(2-(isoindolin-2-yl)-3,7-dimethyl-4-oxo-4H-pyrido[1,2-a]pyrimidin-9-yl)ethyl)amino)picolinic acid] |
| 0.146 | > 10 | – | Cc1cc([C@@H](C)Nc2ccccc2C(=O)O)c2nc(N3CCC(C)CC3)c(C#N)c(=O)n2c1 [Example 11-314, (R)-2-((1-(3-cyano-7-methyl-2-(4-methylpiperidin-1-yl)-4-oxo-4H-pyrido[1,2-a]pyrimidin-9-yl)ethyl)amino)benzoic acid] |
| 0.156 | > 10 | – | Cc1cc([C@@H](C)Nc2ccccc2C(=O)O)c2nc(N3CC4(CCC4)C3)c(C#N)c(=O)n2c1 [Example 11-323, (R)-2-((1-(3-cyano-7-methyl-4-oxo-2-(azaspiro[3.3]heptan-2-yl)-4H-pyrido[1,2-a]pyrimidin-9-yl)ethyl)amino)benzoic acid] |
| 0.198 | > 10 | – | Cc1cc([C@@H](C)Nc2ccccc2C(=O)O)c2nc(N3CC[C@@H]3CF)c(C)c(=O)n2c1 [Example 11-95, 2-(((R)-1-(2-((R)-2-(fluoromethyl)azetidin-1-yl)-3,7-dimethyl-4-oxo-4H-pyrido[1,2-a]pyrimidin-9-yl)ethyl)amino)benzoic acid] |
| 2.2 | 4.31 | – | Cc1cc([C@@H](C)Nc2ccccc2C(=O)O)c2nc(O[C@H]3CCOC3)c(C#N)c(=O)n2c1 [Example 11-248, 2-(((R)-1-(3-cyano-7-methyl-4-oxo-2-(((S)-tetrahydrofuran-3-yl)oxy)-4H-pyrido[1,2-a]pyrimidin-9-yl)ethyl)amino)benzoic acid] |
| 0.303 | > 10 | – | Cc1cc([C@@H](C)Nc2ccccc2C(=O)O)c2nc(N3CCN(c4ccccc4C#N)C[C@@H]3C)c(C)c(=O)n2c1 [Example 11-82, 2-(((R)-1-(2-((S)-4-(2-cyanophenyl)-2-methylpiperazin-1-yl)-3,7-dimethyl-4-oxo-4H-pyrido[1,2-a]pyrimidin-9-yl)ethyl)amino)benzoic acid] |
| 0.225 | > 10 | – | Cc1cc([C@@H](C)Nc2ccccc2C(=O)O)c2nc(N3CC[C@H]3C)c(C)c(=O)n2c1 [Example 11-100, 2-(((R)-1-(3,7-dimethyl-2-((R)-2-methylazetidin-1-yl)-4-oxo-4H-pyrido[1,2-a]pyrimidin-9-yl)ethyl)amino)benzoic acid] |
| 2.89 | > 10 | – | Cc1cc(C(C)Nc2c(F)cccc2C(=O)O)c2nc(N3Cc4ccccc4C3)c(C)c(=O)n2c1 (stereo not drawn) [Example 11-363, 3-fluoro-2-((1-(2-(isoindolin-2-yl)-3,7-dimethyl-4-oxo-4H-pyrido[1,2-a]pyrimidin-9-yl)ethyl)amino)benzoic acid] |
